{
  "source": "ChEMBL document CHEMBL1159361",
  "about": "“(Z)-sarcodictyin A, a new highly cytotoxic diterpenoid from the soft coral Bellonella albiflora” (J Nat Prod, 2003)",
  "data": [
    {"test_system": "HeLa", "test": "Cytotoxicity against human HeLa cells", "assay_type": "functional, cell-based", "units": {"IC50": "µg/mL"}, "values": [
      {"smiles": "COC(=O)/C1=C/[C@@H]2[C@@H](C(C)C)CC=C(C)[C@@H]2C[C@H](OC(=O)/C=C\\c2cn(C)cn2)[C@]2(C)C=C[C@@]1(O)O2", "IC50": 0.09},
      {"smiles": "CO[C@]12C=C[C@](C)(O1)[C@@H](OC(=O)/C=C\\c1cn(C)cn1)C[C@H]1C(C)=CC[C@H](C(C)C)[C@H]1/C=C\\2CO[C@@H]1OC[C@@H](O)[C@@H](O)[C@@H]1OC(C)=O", "IC50": 0.017},
      {"smiles": "CO[C@]12C=C[C@](C)(O1)[C@@H](OC(=O)/C=C/c1cn(C)cn1)C[C@H]1C(C)=CC[C@H](C(C)C)[C@H]1/C=C\\2CO", "note": "[ELEUTHEROBIN AGLYCON]", "IC50": 0.09},
      {"smiles": "CO[C@]12C=C[C@](C)(O1)[C@@H](OC(=O)/C=C/c1cn(C)cn1)C[C@H]1C(C)=CC[C@H](C(C)C)[C@H]1/C=C\\2CO[C@@H]1OC[C@@H](O)[C@@H](O)[C@@H]1OC(C)=O", "note": "[ELEUTHEROBIN]", "IC50": 0.017},
      {"smiles": "CCOC(=O)/C1=C/[C@@H]2[C@@H](C(C)C)CC=C(C)[C@@H]2C[C@H](OC(=O)/C=C/c2cn(C)cn2)[C@]2(C)C=C[C@@]1(O)O2", "note": "[SARCODICTYIN B]", "IC50": 0.09}
    ]}
  ]
}
